Results taken from article PMC7431030 (Nature, 2020).
“Also recorded” adds a separate entry of the source. Square brackets hold non-standard residues; d marks the D form. Peptide text beside a SMILES is read from it. NMeTrp(1-(4-Br-benzyl)) = CN[C@@H](Cc1cn(Cc2ccc(Br)cc2)c2ccccc12)C(=O)O; Butanoyl(2R-oxy,4-CN) = N#CCC[C@@H](O)C(=O)O; NMeL = CN[C@@H](CC(C)C)C(=O)O; NMeA = CN[C@@H](C)C(=O)O

Tests used:
SIGMAR2/TMEM97 = conditions: annotated activity, Extended Data Fig. 10b; cited from earlier work
SARS-CoV-2 [1] = assay type: cell-based
SARS-CoV-2 [2] = assay type: cell-based; remark: listed apart in the source
SARS-CoV-2 [3] = assay type: cell-based; conditions: Vero E6 cells
viral replication = conditions: cited from earlier work
SIGMAR1 = conditions: Extended Data Fig. 10b, cited from earlier work

Row | SMILES | antiviral activity / viral infectivity (in words) (SARS-CoV-2 [3]) | other results
1 | Cc1cc(OCCN2CCOCC2)nn1-c1ccc2ccccc2c1 [E-52862] | – | binding at SIGMAR2/TMEM97, reported (SIGMAR2/TMEM97): greater than 1 μM
2 | COc1cccc2c1CCCC2CCCN1CCN(C2CCCCC2)CC1 (stereo not shown) [PB28] | effectively reducing viral infectivity | times more potent than hydroxychloroquine (SARS-CoV-2 [1]): ~ 20 times; detection of the viral NP protein (in words) (SARS-CoV-2 [2]): decreased the detection of the viral NP protein
3 | CCCN1CCC=C(c2cc(-c3ccc(C)cc3)no2)C1.O=C(O)C(=O)O [PD-144418] | effectively reducing viral infectivity | –
4 | CC(C)C[C@@H]1NC(=O)[C@H](Cc2cn(Cc3ccc(Br)cc3)c3ccccc23)N(C)C(=O)[C@H](CC(C)C)NC(=O)[C@H](CC(C)C)N(C)C(=O)[C@H](CC(C)C)NC(=O)[C@@H](CCC#N)OC(=O)[C@H](C)N(C)C1=O [PS3061] (cyclo(L[NMeA][Butanoyl(2R-oxy,4-CN)]L[NMeL]L[NMeTrp(1-(4-Br-benzyl))])) | effectively reducing viral infectivity; also recorded: blocked SARS-CoV-2 replication | –
5 | CCCCc1oc2ccccc2c1C(=O)c1cc(I)c(OCCN(CC)CC)c(I)c1 [amiodarone] | – | activity in viral replication assays reported by others (in words) (viral replication): active in viral replication assays
6 | COc1ccc(CCN2CCC(Nc3nc4ccccc4n3Cc3ccc(F)cc3)CC2)cc1 [astemizole] | – | activity in viral replication assays reported by others (in words) (viral replication): active in viral replication assays
7 | Clc1ccc(C(OCCN2CCCCC2)c2ccccc2)cc1 (stereo not shown) [cloperastine] | antiviral activity | –
8 | COc1ccc2c(c1)[C@]13CCCC[C@@H]1[C@H](C2)N(C)CC3 [dextromethorphan] | pro-viral activity | viral titers (TCID50), effect in words (SARS-CoV-2 [1]): increases viral titers
9 | O=C(CCCN1CCC(O)(c2ccc(Cl)cc2)CC1)c1ccc(F)cc1 [haloperidol, Haloperidol] | effectively reducing viral infectivity; also recorded: antiviral activity | –
10 | CCN(CCO)CCCC(C)Nc1ccnc2cc(Cl)ccc12 (stereo not shown) [hydroxychloroquine] | effectively reducing viral infectivity | detection of the viral NP protein (in words) (SARS-CoV-2 [2]): decreased the detection of the viral NP protein
11 | Cc1cc2c(s1)Nc1ccccc1N=C2N1CCN(C)CC1 [olanzapine] | not antiviral | Sigma receptor activity (in words) (SIGMAR1): little Sigma receptor activity; activity at SIGMAR1, reported (SIGMAR1; annotated activity): greater than 5 μM
12 | CC(=O)[C@H]1CC[C@H]2[C@@H]3CCC4=CC(=O)CC[C@]4(C)[C@H]3CC[C@]12C [progesterone] | antiviral | –
13 | Fc1ccc(-n2cc(CCCCN3CCC4(CC3)OCc3ccccc34)c3ccccc32)cc1 [siramesine] | antiviral | –
14 | COc1ccc(CCN(C)CCCC(C#N)(c2ccc(OC)c(OC)c2)C(C)C)cc1OC (stereo not shown) [verapamil] | – | activity in viral replication assays reported by others (in words) (viral replication): active in viral replication assays
15 | COc1cc2c(c(OC)n1)[C@]1(O)[C@H](O)[C@H](CN(C)C)[C@@H](c3ccccc3)[C@]1(c1ccc(C#N)cc1)O2 [zotatifin] | reduce viral infectivity in a concentration-dependent matter; also recorded: effectively reducing viral infectivity; also recorded: strong antiviral effect | detection of the viral NP protein (in words) (SARS-CoV-2 [2]): decreased the detection of the viral NP protein
